# Measurements as given in PubChem BioAssay (NCI).
#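 Five compound concentrations were applied to cells in 96-well plates for 48 hours; endpoints were derived by simple linear interpolation of the resulting dose-response curve. TGI: total growth inhibition.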
# What was measured:
# Assay in all cases: NCI tumour cell line growth inhibition, 48 h
# [1] = system: RXF 393 renal
# [2] = system: K-562 leukemia
# [3] = system: NCI-H23 lung
# [4] = system: KM12 colon
# [5] = system: SF-295 CNS
# [6] = system: CCRF-CEM leukemia
# [7] = system: HCC-2998 colon
# [8] = system: U251 CNS
# [9] = system: COLO 205 colon
# [10] = system: BT-549 breast
# [11] = system: HOP-62 NSCLC
# [12] = system: MALME-3M melanoma
# [13] = system: SR leukemia
# [14] = system: NCI-H226 lung
# [15] = system: NCI/ADR-RES ovarian
# [16] = system: RPMI-8226 leukemia
# [17] = system: OVCAR-3 ovarian
# [18] = system: UACC-62 melanoma
# [19] = system: OVCAR-8 ovarian
# [20] = system: SF-268 CNS
# [21] = system: MDA-MB-435
# [22] = system: SNB-19 CNS
# [23] = system: SF-539 CNS
# [24] = system: A498 renal
# [25] = system: OVCAR-5 ovarian
# [26] = system: SK-MEL-2 melanoma
# [27] = system: MOLT-4 leukemia
# [28] = system: SN12C renal
# [29] = system: HL-60(TB) leukemia
# [30] = system: A549 NSCLC
# [31] = system: PC-3 prostate
# [32] = system: IGROV1 ovarian
# [33] = system: MDA-MB-231 breast
# [34] = system: HS 578T breast
# [35] = system: SK-OV-3 ovarian
# [36] = system: MDA-N
# [37] = system: NCI-H460 lung
# [38] = system: M14 melanoma
# [39] = system: ACHN renal
# [40] = system: NCI-H522 lung
# [41] = system: SK-MEL-28 melanoma
# [42] = system: TK-10 renal
# [43] = system: UO-31 renal
# [44] = system: LOX IMVI melanoma
# [45] = system: DU-145 prostate
# [46] = system: SW-620 colon
# [47] = system: EKVX NSCLC
# [48] = system: HCT-116 colon
# [49] = system: HT29 colon
# [50] = system: OVCAR-4 ovarian
# [51] = system: T-47D breast
# [52] = system: UACC-257 melanoma
# [53] = system: CAKI-1 renal
# [54] = system: HOP-92 NSCLC
# [55] = system: HCT-15 colon
# [56] = system: 786-0 renal
# [57] = system: MCF7 breast
# [58] = system: SK-MEL-5 melanoma
# [59] = system: SNB-75 CNS
smiles,measurement,setting,value
COc1ccc(Nc2nc(N)c(C(=O)c3cccs3)s2)cc1,TGI,[1],33.8 µM
same,TGI,[2],> 100 µM
same,TGI,[3],> 100 µM
same,TGI,[4],15.9 µM
same,TGI,[5],> 100 µM
same,TGI,[6],12.8 µM
same,TGI,[7],8.85 µM
same,TGI,[8],> 100 µM
same,TGI,[9],21.6 µM
same,TGI,[10],> 100 µM
same,TGI,[11],> 67.7 µM
same,TGI,[12],64.8 µM
same,TGI,[13],5.88 µM
same,TGI,[14],19.2 µM
same,TGI,[15],> 100 µM
same,TGI,[16],21.7 µM
same,TGI,[17],> 32.4 µM
same,TGI,[18],> 54.2 µM
same,TGI,[19],> 100 µM
same,TGI,[20],> 100 µM
same,TGI,[21],22.8 µM
same,TGI,[22],> 64.8 µM
same,TGI,[23],19.5 µM
same,TGI,[24],40.5 µM
same,TGI,[25],> 79.7 µM
same,TGI,[26],> 51.4 µM
same,TGI,[27],17.2 µM
same,TGI,[28],> 75.6 µM
same,TGI,[29],> 22.8 µM
same,TGI,[30],> 47.8 µM
same,TGI,[31],> 60.2 µM
same,TGI,[32],41.5 µM
same,TGI,[33],> 80.8 µM
same,TGI,[34],> 61.9 µM
same,TGI,[35],> 100 µM
same,TGI,[36],> 82.4 µM
same,TGI,[37],11.1 µM
same,TGI,[38],34.6 µM
same,TGI,[39],> 100 µM
same,TGI,[40],> 100 µM
same,TGI,[41],> 95.7 µM
same,TGI,[42],24.3 µM
same,TGI,[43],> 41.1 µM
same,TGI,[44],> 100 µM
same,TGI,[45],36.3 µM
same,TGI,[46],> 100 µM
same,TGI,[47],> 75 µM
same,TGI,[48],> 36.5 µM
same,TGI,[49],> 41.4 µM
same,TGI,[50],48.1 µM
same,TGI,[51],> 64.1 µM
same,TGI,[52],31.3 µM
same,TGI,[53],> 100 µM
same,TGI,[54],89.3 µM
same,TGI,[55],> 49.1 µM
same,TGI,[56],> 56.6 µM
same,TGI,[57],24.9 µM
same,TGI,[58],12.8 µM
C=CCC(C(=O)Nc1cccc2[nH]cnc12)C(=O)OCC (configuration not stated),TGI,[2],> 100 µM
same,TGI,[4],> 100 µM
same,TGI,[5],> 100 µM
same,TGI,[7],> 100 µM
same,TGI,[8],> 100 µM
same,TGI,[10],> 100 µM
same,TGI,[11],> 100 µM
same,TGI,[13],> 100 µM
same,TGI,[14],> 100 µM
same,TGI,[15],> 100 µM
same,TGI,[16],> 100 µM
same,TGI,[59],> 100 µM
same,TGI,[17],> 100 µM
same,TGI,[18],> 100 µM
same,TGI,[19],> 100 µM
same,TGI,[20],> 100 µM
same,TGI,[21],> 100 µM
same,TGI,[22],> 100 µM
same,TGI,[23],> 100 µM
same,TGI,[24],> 100 µM
same,TGI,[25],> 100 µM
same,TGI,[26],> 100 µM
same,TGI,[27],> 100 µM
same,TGI,[28],> 100 µM
same,TGI,[29],> 100 µM
same,TGI,[30],> 100 µM
same,TGI,[31],> 100 µM
same,TGI,[32],> 100 µM
same,TGI,[33],> 100 µM
same,TGI,[34],> 100 µM
same,TGI,[35],> 100 µM
same,TGI,[36],> 100 µM
same,TGI,[37],> 100 µM
same,TGI,[38],> 100 µM
same,TGI,[39],> 100 µM
same,TGI,[40],> 100 µM
same,TGI,[41],> 100 µM
same,TGI,[42],> 100 µM
same,TGI,[43],> 100 µM
same,TGI,[44],> 100 µM
same,TGI,[45],> 100 µM
same,TGI,[46],> 100 µM
same,TGI,[47],> 100 µM
same,TGI,[48],> 100 µM
same,TGI,[49],> 100 µM
same,TGI,[50],> 100 µM
same,TGI,[51],> 100 µM
same,TGI,[52],> 100 µM
same,TGI,[54],> 100 µM
same,TGI,[55],> 100 µM
same,TGI,[56],> 100 µM
same,TGI,[57],> 100 µM
Oc1ccc(Cc2cc(Cl)cc(Cl)c2O)cc1Cl,TGI,[1],28.8 µM
same,TGI,[2],37.6 µM
same,TGI,[3],32.3 µM
same,TGI,[4],49.6 µM
same,TGI,[5],39.6 µM
same,TGI,[8],36.2 µM
same,TGI,[9],35 µM
same,TGI,[10],33.4 µM
same,TGI,[11],37.3 µM
same,TGI,[12],30.9 µM
same,TGI,[13],47.2 µM
same,TGI,[14],40.2 µM
same,TGI,[15],38.6 µM
same,TGI,[16],48.4 µM
same,TGI,[17],36.6 µM
same,TGI,[18],27.9 µM
same,TGI,[19],36.3 µM
same,TGI,[20],31 µM
same,TGI,[21],27.1 µM
same,TGI,[22],33.7 µM
same,TGI,[23],34.3 µM
same,TGI,[24],33.8 µM
same,TGI,[25],38.9 µM
same,TGI,[26],29.7 µM
same,TGI,[27],55.6 µM
same,TGI,[28],30.2 µM
same,TGI,[29],3.36 µM
same,TGI,[30],41.3 µM
same,TGI,[31],33.1 µM
same,TGI,[32],34.1 µM
same,TGI,[33],34.3 µM
same,TGI,[34],37.2 µM
same,TGI,[35],60.5 µM
same,TGI,[36],22.4 µM
same,TGI,[37],32.4 µM
same,TGI,[38],34 µM
same,TGI,[39],31.2 µM
same,TGI,[40],31.6 µM
same,TGI,[41],32.9 µM
same,TGI,[42],30.6 µM
same,TGI,[43],31 µM
same,TGI,[44],31.4 µM
same,TGI,[45],24.4 µM
same,TGI,[46],41.2 µM
same,TGI,[47],40.2 µM
same,TGI,[48],37.2 µM
same,TGI,[49],43.9 µM
same,TGI,[50],58.3 µM
same,TGI,[51],44.5 µM
same,TGI,[52],30.4 µM
same,TGI,[53],51.5 µM
same,TGI,[54],33.9 µM
same,TGI,[55],35.2 µM
same,TGI,[56],43 µM
same,TGI,[57],32.5 µM
same,TGI,[58],32.1 µM
O=c1ccc2ccc(O)cc2o1,TGI,[1],> 100 µM
same,TGI,[3],> 100 µM
same,TGI,[4],> 100 µM
same,TGI,[5],> 100 µM
same,TGI,[6],> 100 µM
same,TGI,[7],> 100 µM
same,TGI,[8],> 100 µM
same,TGI,[9],> 100 µM
same,TGI,[10],> 100 µM
same,TGI,[11],> 100 µM
same,TGI,[12],> 100 µM
same,TGI,[14],> 100 µM
same,TGI,[15],> 100 µM
same,TGI,[16],> 100 µM
same,TGI,[59],> 100 µM
same,TGI,[17],> 100 µM
same,TGI,[18],> 100 µM
same,TGI,[19],> 100 µM
same,TGI,[20],> 100 µM
same,TGI,[21],> 100 µM
same,TGI,[22],> 100 µM
same,TGI,[23],> 100 µM
same,TGI,[24],> 100 µM
same,TGI,[25],> 100 µM
same,TGI,[26],> 100 µM
same,TGI,[27],> 100 µM
same,TGI,[28],> 100 µM
same,TGI,[29],> 100 µM
same,TGI,[30],> 100 µM
same,TGI,[31],> 100 µM
same,TGI,[32],> 100 µM
same,TGI,[33],> 100 µM
same,TGI,[34],> 100 µM
same,TGI,[35],> 100 µM
same,TGI,[36],> 100 µM
same,TGI,[38],> 100 µM
same,TGI,[39],> 100 µM
same,TGI,[40],> 100 µM
same,TGI,[41],> 100 µM
same,TGI,[42],> 100 µM
same,TGI,[43],> 100 µM
same,TGI,[44],> 100 µM
same,TGI,[45],> 100 µM
same,TGI,[46],> 100 µM
same,TGI,[47],> 100 µM
same,TGI,[48],> 100 µM
same,TGI,[49],> 100 µM
same,TGI,[50],> 100 µM
same,TGI,[51],> 100 µM
same,TGI,[52],> 100 µM
same,TGI,[53],> 100 µM
same,TGI,[54],> 100 µM
same,TGI,[55],> 100 µM
same,TGI,[56],> 100 µM
same,TGI,[57],> 100 µM
same,TGI,[58],> 100 µM
